Reference: US20250002507A1, “7,8-DIHYDRO-5H-1,6-NAPHTHYRIDINE DERIVATIVES AS POSITIVE ALLOSTERIC MODULATORS OF THE MUSCARINIC ACETYLCHOLINE RECEPTOR M4 FOR TREATING NEUROLOGICAL AND PSYCHIATRIC DISORDERS” (Vanderbilt University, priority 2021, published 2025)
Like-named read-outs stand apart in the source and are kept apart here.

Molecular target: T1, Human M4 (Homo sapiens, UniProt P08173)
T1 construct: expressed in transfected cells
T1 sequence (P08173 1-479): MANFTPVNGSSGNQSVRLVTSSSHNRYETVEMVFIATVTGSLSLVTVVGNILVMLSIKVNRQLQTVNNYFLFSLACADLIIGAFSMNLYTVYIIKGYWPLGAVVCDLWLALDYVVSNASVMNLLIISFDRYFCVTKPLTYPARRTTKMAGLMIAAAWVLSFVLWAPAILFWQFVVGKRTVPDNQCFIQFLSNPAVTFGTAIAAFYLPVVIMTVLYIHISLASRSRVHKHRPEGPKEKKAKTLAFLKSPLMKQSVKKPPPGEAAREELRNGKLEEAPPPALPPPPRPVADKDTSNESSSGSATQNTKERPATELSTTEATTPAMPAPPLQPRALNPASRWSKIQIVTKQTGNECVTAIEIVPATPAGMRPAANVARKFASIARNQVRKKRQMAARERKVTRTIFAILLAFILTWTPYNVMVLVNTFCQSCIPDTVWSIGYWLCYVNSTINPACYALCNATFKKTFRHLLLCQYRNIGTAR
Assay: mAChR M4 cell-based functional assay (calcium flux, potentiation of EC20 acetylcholine response), hM4-Gqi5 CHO-K1 cells
Conditions: for Emax at 30 µM: CHO-K1, % ACh maximum at 30 μM
Procedure: Human and rat M4 cDNAs, along with the chimeric G protein Gqi5, were transfected into Chinese hamster ovary (CHO-K1) cells purchased from the American Type Culture Collection using Lipofectamine2000. hM4-Gqi5 cells were grown in Ham's F-12 medium containing 10% heat-inactivated fetal bovine serum (FBS), 20 mM HEPES, 50 μg/mL G418 sulfate, and 500 μg/mL Hygromycin B. rM4-Gqi5 cells were grown in DMEM containing 10% heat-inactivated FBS, 20 mM HEPES, 400 μg/mL G418 sulfate, and 500 μg/mL Hygromycin B.
For high throughput measurement of agonist-evoked increases in intracellular calcium, CHO-K1 cells stably expressing muscarinic receptors were plated in growth medium lacking G418 and hygromycin at 15,000 cells/20 μL/well in Greiner 384-well black-walled, tissue culture (TC)-treated, clear-bottom plates (VWR). Cells were incubated overnight at 37° C. and 5% CO2. The next day, cells were washed using an ELX 405 (BioTek) with assay buffer; the final volume was then aspirated to 20 μL. Next, 20 μL of a 2.3 μM stock of Fluo-4/acetoxymethyl ester (Invitrogen, Carlsbad, CA), prepared as a 2.3 mM stock in DMSO and mixed in a 1:1 ratio with 10% (w/v) Pluronic F-127 and diluted in assay buffer, was added to the wells and the cell plates were incubated for 50 min at 37° C. and 5% CO2. Dye was removed by washing with the ELX 405 and the final volume was aspirated to 20 μL. Compound master plates were formatted in an 11 point concentration-response curve (CRC) format (1:3 dilutions) in 100% DMSO with a starting concentration of 10 mM using a BRAVO liquid handler (Agilent). Test compound CRCs were then transferred to daughter plates (240 nL) using the Echo acoustic plate reformatter (Labcyte, Sunnyvale, CA) and then diluted into assay buffer (40 μL) to a 2× stock using a Thermo Fisher Combi (Thermo Fisher Scientific, Waltham, MA).
Calcium flux was measured using the Functional Drug Screening System (FDSS) 6000 or 7000 (Hamamatsu Corporation, Tokyo, Japan) as an increase in the fluorescent static ratio. Compounds were applied to cells (20 μL, 2×) using the automated system of the FDSS at 2-4 seconds into the protocol and the data were collected at 1 Hz. At 144 seconds, 10 μL of an EC20 concentration of the muscarinic receptor agonist acetylcholine was added (5×), followed by the addition of 12 μL of an EC80 concentration of acetylcholine at the 230 second time point (5×). Agonist activity was analyzed as a concentration-dependent increase in calcium mobilization upon compound addition. Positive allosteric modulator activity was analyzed as a concentration-dependent increase in the EC20 acetylcholine response. Antagonist activity was analyzed as a concentration-dependent decrease in the EC80 acetylcholine response. Concentration-response curves were generated using a four-parameter logistical equation in XLFit curve fitting software (IDBS, Bridgewater, NJ) for Excel (Microsoft, Redmond, WA) or Prism (GraphPad Software, Inc., San Diego, CA).
Compounds were synthesized as described above. Activity (EC50 and Emax) was determined in the mAChR M4 cell-based functional assay as described above and the data are shown in Tables 2-4. The compound number corresponds to the compound numbers used in Table 1.

[1] = hM4-Gqi5 CHO-K1 cells, calcium flux, PAM of EC20 acetylcholine, read-out: Human M4 EC50
[2] = Table 3, Human M4, read-out: Emax (% ACh maximum at 30 μM)
[3] = Table 3, potentiation of EC20 acetylcholine response, calcium flux, CHO-K1 cells, read-out: Human M4 EC50
[4] = Table 4, Human M4, read-out: Emax (% ACh maximum at 30 μM)
[5] = Table 4, potentiation of EC20 acetylcholine response, calcium flux, CHO-K1 cells, read-out: Human M4 EC50

Emax at 30 µM (human M4, read-out: Emax)	EC50 [1]	Emax at 30 µM [2]	EC50 [3]	SMILES	also measured
–	–	–	–	COc1ncc(-c2cnc3c(c2)CN(c2nn4cnnc4c(C)c2C)CC3)cc1F [Compound 176, 6-(7,8-dimethyl-[1,2,4]triazolo[4,3-b]pyridazin-6-yl)-3-(5-fluoro-6-methoxypyridin-3-yl)-5,6,7,8-tetrahydro-1,6-naphthyridine]	EC50: 587 nM; Emax (CHO-K1, read-out: Emax (% ACh maximum at 30 μM)): 89%
100%	373 nM	–	–	Cc1cc2nncn2nc1N1CCc2ncc(-c3cnn(C)c3)cc2C1 [Compound 140, 3-(1-methylpyrazol-4-yl)-6-(7-methyl-[1,2,4]triazolo[4,3-b]pyridazin-6-yl)-7,8-dihydro-5H-1,6-naphthyridine]	–
–	–	89%	2170 nM	Cc1c(N2CCc3nnc(Cl)cc3C2)nn2c(C(F)(F)F)nnc2c1C [Compound 283, 3-chloro-6-(7,8-dimethyl-3-(trifluoromethyl)-[1,2,4]triazolo[4,3-b]pyridazin-6-yl)-5,6,7,8-tetrahydropyrido[4,3-c]pyridazine]	–
–	–	45%	5500 nM	Cc1cc(Nc2cnc3c(c2)CN(c2nn4cnnc4c(C)c2C)CC3)n(C(C)C)n1 [Compound 214, 6-(7,8-dimethyl-[1,2,4]triazolo[4,3-b]pyridazin-6-yl)-N-(1-isopropyl-3-methyl-1H-pyrazol-5-yl)-5,6,7,8-tetrahydro-1,6-naphthyridin-3-amine]	–
–	–	78%	218 nM	Cc1c(N2CCc3ncc(-c4cccnc4)cc3C2)nn2c(C(F)(F)F)nnc2c1C [Compound 257, 6-(7,8-dimethyl-3-(trifluoromethyl)-[1,2,4]triazolo[4,3-b]pyridazin-6-yl)-3-(pyridin-3-yl)-5,6,7,8-tetrahydro-1,6-naphthyridine]	–
–	–	82%	176 nM	Cc1cc2nncn2nc1N1CCc2ncc(-c3ccc(C4CC4)nc3)cc2C1 [Compound 197, 3-(6-cyclopropylpyridin-3-yl)-6-(7-methyl-[1,2,4]triazolo[4,3-b]pyridazin-6-yl)-5,6,7,8-tetrahydro-1,6-naphthyridine]	–
–	–	96%	704 nM	CC(=O)c1cnc2c(c1)CN(c1nn3cnnc3c(C)c1C)CC2 [Compound 184, 1-(6-(7,8-dimethyl-[1,2,4]triazolo[4,3-b]pyridazin-6-yl)-5,6,7,8-tetrahydro-1,6-naphthyridin-3-yl)ethan-1-one]	–
81%	921 nM	–	–	CCn1ccc(-c2cnc3c(c2)CN(c2nn4ccnc4cc2C)CC3)n1 [Compound 131, 3-(1-ethylpyrazol-3-yl)-6-(7-methylimidazo[1,2-b]pyridazin-6-yl)-7,8-dihydro-5H-1,6-naphthyridine]	–
89%	695 nM	–	–	Cc1c(N2CCc3ncc(C(=O)Nc4ccccc4F)cc3C2)nn2cnnc2c1C [Compound 59, 6-(7,8-dimethyl-[1,2,4]triazolo[4,3-b]pyridazin-6-yl)-N-(2-fluorophenyl)-7,8-dihydro-5H-1,6-naphthyridine-3-carboxamide]	–
94%	105 nM	–	–	Cc1ccncc1-c1cnc2c(c1)CN(c1nn3cnnc3c(C)c1C)CC2 [Compound 102, 6-(7,8-dimethyl-[1,2,4]triazolo[4,3-b]pyridazin-6-yl)-3-(4-methyl-3-pyridyl)-7,8-dihydro-5H-1,6-naphthyridine]	–
–	–	79%	502 nM	Cc1c(N2CCc3ncc(OCC4CC(F)(F)C4)cc3C2)nn2cnnc2c1C [Compound 263, 3-((3,3-difluorocyclobutyl)methoxy)-6-(7,8-dimethyl-[1,2,4]triazolo[4,3-b]pyridazin-6-yl)-5,6,7,8-tetrahydro-1,6-naphthyridine]	–
–	–	52%	2480 nM	CCCCn1nc(C)cc1Nc1cnc2c(c1)CN(c1nn3cnnc3c(C)c1C)CC2 [Compound 213, N-(1-butyl-3-methyl-1H-pyrazol-5-yl)-6-(7,8-dimethyl-[1,2,4]triazolo[4,3-b]pyridazin-6-yl)-5,6,7,8-tetrahydro-1,6-naphthyridin-3-amine]	–
101%	205 nM	–	–	Cc1c(N2CCc3ncc(Nc4ccc(F)cc4F)cc3C2)nn2cnnc2c1C [Compound 70, N-(2,4-difluorophenyl)-6-(7,8-dimethyl-[1,2,4]triazolo[4,3-b]pyridazin-6-yl)-7,8-dihydro-5H-1,6-naphthyridin-3-amine]	–
–	–	–	–	Cc1cc2cnc(C)n2nc1N1CCc2ncc(C(F)(F)F)cc2C1 [Compound 341, 6-(3,7-dimethylimidazo[1,5-b]pyridazin-2-yl)-3-(trifluoromethyl)-5,6,7,8-tetrahydro-1,6-naphthyridine]	Emax at 30 µM [4]: 63%; EC50 [5]: 521 nM
94%	217 nM	–	–	Cc1c(N2CCc3ncc(-c4ccc(F)nc4)cc3C2)nn2cnnc2c1C [Compound 42, 6-(7,8-dimethyl-[1,2,4]triazolo[4,3-b]pyridazin-6-yl)-3-(6-fluoro-3-pyridyl)-7,8-dihydro-5H-1,6-naphthyridine]	–
–	–	–	–	Cc1cc2cncn2nc1N1CCc2ncc(C(F)(F)F)cc2C1 [Compound 340, 6-(3-methylimidazo[1,5-b]pyridazin-2-yl)-3-(trifluoromethyl)-5,6,7,8-tetrahydro-1,6-naphthyridine]	Emax at 30 µM [4]: 84%; EC50 [5]: 431 nM
–	–	83%	88 nM	Cc1c(N2CCc3ncc(C4CC4)cc3C2)nn2c(C(F)(F)F)nnc2c1C [Compound 222, 3-cyclopropyl-6-(7,8-dimethyl-3-(trifluoromethyl)-[1,2,4]triazolo[4,3-b]pyridazin-6-yl)-5,6,7,8-tetrahydro-1,6-naphthyridine]	–
99%	477 nM	–	–	Cc1cc2nncn2nc1N1CCc2ncc(-c3cnn(CC(C)C)c3)cc2C1 [Compound 147, 3-(1-isobutylpyrazol-4-yl)-6-(7-methyl-[1,2,4]triazolo[4,3-b]pyridazin-6-yl)-7,8-dihydro-5H-1,6-naphthyridine]	–
44%	266 nM	–	–	Cc1cc2nccn2nc1N1CCc2ncc(-c3cnn(CC(C)C)c3)cc2C1 [Compound 144, 3-(1-isobutylpyrazol-4-yl)-6-(7-methylimidazo[1,2-b]pyridazin-6-yl)-7,8-dihydro-5H-1,6-naphthyridine]	–
–	–	65%	1970 nM	Cc1c(N2CCc3ncc(N4CCN(C)CC4)cc3C2)nn2c(C(F)(F)F)nnc2c1C [Compound 276, 6-(7,8-dimethyl-3-(trifluoromethyl)-[1,2,4]triazolo[4,3-b]pyridazin-6-yl)-3-(4-methylpiperazin-1-yl)-5,6,7,8-tetrahydro-1,6-naphthyridine]	–
91%	583 nM	–	–	Cc1cc2nccn2nc1N1CCc2ncc(-c3cnn(C)c3)cc2C1 [Compound 141, 6-(7-methylimidazo[1,2-b]pyridazin-6-yl)-3-(1-methylpyrazol-4-yl)-7,8-dihydro-5H-1,6-naphthyridine]	–
